The text below walks through data of article PMC12064818, “A general assay platform to study protein pharmacology using ligand-dependent structural dynamics” (Nature Communications, 2025).

The target in test [1] is T1, ABL1-N-HiBiT kinase domain (Homo sapiens, UniProt P00519).
T1 sequence (P00519 233-500): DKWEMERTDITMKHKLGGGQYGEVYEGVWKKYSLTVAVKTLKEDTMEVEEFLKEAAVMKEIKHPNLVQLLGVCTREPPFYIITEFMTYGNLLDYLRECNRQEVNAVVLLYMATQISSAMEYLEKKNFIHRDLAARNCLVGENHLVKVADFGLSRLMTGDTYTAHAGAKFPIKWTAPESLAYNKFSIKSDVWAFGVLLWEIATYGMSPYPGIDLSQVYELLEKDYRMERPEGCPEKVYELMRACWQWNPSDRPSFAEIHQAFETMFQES
Kind of test: SDR assay, ABL1-N-HiBiT. Background: HiBiT is a short tag that completes a luciferase, so light tracks the accessible tagged protein.

The target in test [2] is T2, T7 Lig-N-HiBiT (DNA ligase) (Escherichia phage T7, UniProt P00969).
T2 sequence (P00969 2-359): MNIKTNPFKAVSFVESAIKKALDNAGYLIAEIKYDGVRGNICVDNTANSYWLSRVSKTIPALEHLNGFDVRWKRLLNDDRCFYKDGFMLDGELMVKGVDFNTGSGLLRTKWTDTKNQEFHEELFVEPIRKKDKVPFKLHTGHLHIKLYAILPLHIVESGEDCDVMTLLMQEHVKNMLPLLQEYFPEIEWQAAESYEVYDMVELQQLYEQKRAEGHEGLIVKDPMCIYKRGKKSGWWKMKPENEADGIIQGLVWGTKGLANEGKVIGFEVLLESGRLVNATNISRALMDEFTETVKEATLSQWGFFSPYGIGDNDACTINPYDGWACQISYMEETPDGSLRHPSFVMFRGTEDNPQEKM
The test is described as follows: SDR assay (aqueous ligand dispense), T7 Lig-N-HiBiT. Conditions: for SDR assay data: 1 nM T7 Lig-N-HiBiT; for SDR assay data / SDR response: Log [ATP]; for SDR response: replicates.

Another test has as its target B. malayi iPGM-C-HiBiT (Brugia malayi, UniProt Q4VWF8). The test is described as follows: iPGM coupled-enzyme assay, B. malayi iPGM-C-HiBiT. The format is biochemical. The arrangement: cDNA, containing Ala2-Glu515 and the 6xHis tag; His6 (C); made in house; host or cells: E. coli. Particulars: B. malayi iPGM-C-HiBiT Std 5 nM; ligand […] Std. On the procedure: The enzyme activity of C. elegans or B. malayi iPGM-C-HiBiT was measured using the functional coupled-enzyme luminescence end-point output assay for iPGM as previously described[16],[41],[68]. Briefly, the indicated concentration of 4 μL of iPGM-C-HiBiT was dispensed into 1536-well white, high solid base, medium bind plates in a pH 8.0 iPGM assay buffer (30 mM Tris-HCl, 5 mM magnesium sulfate, 20 mM potassium chloride and 0.08% BSA) with the BioRaptr 2. Compounds and controls were added to each plate with a pintool as described in Supplementary Data 8. Enzymes were incubated with peptide for > 20 min at ambient temperature, protected from light. […] Enzyme was at 5 nM final concentration for the standard assay with an estimated KM 3-phosphoglycerate (3PG) substrate concentration of 400 μM. Plates were incubated at ambient temperature for 10 min, protected from light, then measured by a ViewLux plate reader. […] See Supplementary Table 6 for additional details.
Supplementary Table 6. Protocol for Co- factor independent phosphoglycerate mutase (iPGM) coupled-enzyme assay
Supplementary Table 6: Protocol for Co-factor independent phosphoglycerate m utase (iPGM) coupled- enzym e assay […]
No enzym e control (colum n 1) and enzym e solutions (5 nM Bm iPGM-C-HiBiT or Ce iPGM-1 Reagent 4 µLC-HiBiT dialyzed against Zn/Mn final assay concentration) in PGM enzym e buffer; white/solid bottom , m edium bind, high base plates (Greiner), dispensed with BioRaptr 2 […]
in 8-pt 1:6 titration series in duplicate); com pounds transferred to respective colum ns with […]
Test com pounds: m acrocyclic peptides at 5 m M stock concentration in 16-pt, 1:3 titration […]
transferred to respective colum ns with Pintool
3 Incubation 20 m inIncubate enzym e + com pounds at am bient tem p for 20 m in, protected from light 4 Reagent 2 µLSubstrate solution; 0.4 m M final concentration 3PG in coupled-enzym e substrate buffer; dispensed with BioRaptr 2
5 Incubation 5 m inAm bient tem perature, protected from light
6 Reagent 4 µLKinase-Glo Plus reagent (Prom ega) prepared according to m anufacturer’s protocol;
7 Incubation 10 m inRoom tem perature, protected from light
8 Detector ViewLuxRead plate lum inescence (Exposure = 1 sec; Gain = Medium; Speed = Slow; Binning = 2X) […]
in 20% glycerol); Bm iPGM-C-HiBiT enzym e 10 µM stock solution in 20% glycerol.
Coupled-enzym e substrate solution: 30 m M Tris-HCl, pH 8.0; 5 m M MgSO4; 20 m M KCl; 9 m M ADP (3 m M final); 0.1 4 units/µl enolase (Millipore Sigm a, Cat# E6126); 0.15 units/µl pyruvate kinase (from rabbit m uscle, Millipore Sigm a, Cat #

[3] abbreviates: T7 Lig-N-HiBiT (1 nM), ligand 100 µM.

Where “and” joins values, the source holds several entries; their conditions need not be identical. Equal entries are not always repeated.

Sequence of B. malayi iPGM-C-HiBiT (Q4VWF8 2-515): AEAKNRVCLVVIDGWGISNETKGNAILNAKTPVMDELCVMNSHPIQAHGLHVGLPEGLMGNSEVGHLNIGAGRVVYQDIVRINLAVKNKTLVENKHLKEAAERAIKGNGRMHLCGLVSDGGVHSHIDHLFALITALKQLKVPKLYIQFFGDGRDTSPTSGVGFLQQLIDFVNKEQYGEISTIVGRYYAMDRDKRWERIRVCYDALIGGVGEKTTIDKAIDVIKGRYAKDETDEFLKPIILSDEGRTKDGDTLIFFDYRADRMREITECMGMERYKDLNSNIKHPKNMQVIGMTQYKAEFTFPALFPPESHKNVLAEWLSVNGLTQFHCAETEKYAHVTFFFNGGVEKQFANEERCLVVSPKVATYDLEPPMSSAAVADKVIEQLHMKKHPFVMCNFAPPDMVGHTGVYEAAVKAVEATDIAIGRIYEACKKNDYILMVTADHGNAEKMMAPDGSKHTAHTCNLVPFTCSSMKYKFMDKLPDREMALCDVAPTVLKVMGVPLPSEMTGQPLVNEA

What is called EC50 is the concentration that produces a half-maximal response. Higher therefore signals a less potent agent. As to `Nc1ncnc2c1ncn2[C@@H]1O[C@H](COP(=O)(O)OP(=O)(O)OP(=O)(O)O)[C@@H](O)[C@H]1O` [ATP], the half-maximal effective concentration (EC50) was 24.5 µM in test [1] and no less than 100 µM in test [2]. In addition, the SDR assay data in test [2] (M -2.85) is 436.8 and 379.9 and 405.2; in test [2] (M -3.15) it was 279.5 and 253.1 and 256.0; in test [2] (M -3.45), 148.4 and 136.3 and 161.1; in test [2] (M -3.75), 97.7 and 88.5 and 106.1; in test [2] (M -4.05), 63.0 and 57.2 and 69.3; in test [2] (M -4.35), 47.1 and 49.4 and 60.4. Besides, the SDR assay data in test [2] (M -4.65) was 42.9 and 27.8 and 47.0; in test [2] (M -4.95), 31.1 and 25.7 and 35.7; in test [2] (M -5.55), 21.1 and 18.2 and 32.8; in test [2] (M -6.46), 17.8 and 13.4 and 26.6; in test [2] (M -6.76) it was 16.5 and 24.2 and 25.4. Moreover, the SDR response was 405.2 and 436.8 and 379.9 in test [2] (M -2.85); 256.0 and 279.5 and 253.1 in test [2] (M -3.15); 161.1 and 148.4 and 136.3 in test [2] (M -3.45); 106.1 and 97.7 and 88.5 in test [2] (M -3.75); 69.3 and 63.0 and 57.2 in test [2] (M -4.05); 60.4 and 47.1 and 49.4 in test [2] (M -4.35). For the same molecule, the SDR response was 47.0 and 42.9 and 27.8 in test [2] (M -4.65); 35.7 and 31.1 and 25.7 in test [2] (M -4.95); 40.3 and 24.1 and 20.1 in test [2] (M -5.25); 32.8 and 21.1 and 18.2 in test [2] (M -5.55); 31.3 and 18.8 in test [2] (M -5.86); 32.1 and 13.9 and 17.4 in test [2] (M -6.16). For the same molecule, the SDR response in test [2] (M -6.46) was 26.6 and 17.8 and 13.4; in test [2] (M -6.76), 25.4 and 16.5 and 24.2. The “SDR assay response (in words)” value in test [2] (T7 Lig-N-HiBiT) was “strong SDR signal”. The “SDR assay statistics Ave RLU” value in test [2] (setting [3]) turned out to be 88.7 RLU. Further, the “SDR assay statistics S:B” value in test [2] (setting [3]) amounted to 2.0. The “SDR assay statistics S:N” value in test [2] (setting [3]) turned out to be 5.7. The “SDR assay statistics Z’” value in test [2] (setting [3]) is listed as 0.337. The molecule also displayed a max resp in test [2] (T7 Lig-N-HiBiT, maximum response) of 407.3.

With `CC(C)C[C@H](NC(=O)[C@H](Cc1ccc(O)cc1)NC(=O)[C@@H]1CSCC(=O)N[C@H](Cc2ccc(O)cc2)C(=O)N[C@@H](CC(=O)O)C(=O)N[C@@H](Cc2ccc(O)cc2)C(=O)N2CCC[C@H]2C(=O)NCC(=O)N[C@@H](CC(=O)O)C(=O)N[C@@H](Cc2ccc(O)cc2)C(=O)N1)C(=O)N[C@@H](Cc1ccc(O)cc1)C(=O)NCC(=O)N[C@H](C(=O)N[C@@H](CS)C(=O)NCC(N)=O)[C@@H](C)O` [Ce-2], on B. malayi iPGM-C-HiBiT, the “Standard assay statistics Ave RLU” value is 4115.8 RLU, the “Standard assay statistics S:B” value is 1.7, the “Standard assay statistics S:N” value is -6.9 and the “Standard assay statistics Z’” value is 0.521.
